As a reminder, the IC50 is the concentration at which inhibition is half-maximal.

The values that follow come from patent US20090047246A1, “NOVEL INHIBITORS OF HEPATITIS C VIRUS REPLICATION” (InterMune, Inc., priority 2007, published 2009).

This experiment addresses T1, HCV NS3 helicase (Hepatitis C virus genotype 1b, UniProt P26663).
T1 construct: full-length NS3 (1-631), purified at Array BioPharma
The experiment is described as follows: HCV Helicase Prompt FRET Assay (Example A). The class given is biochemical. Particulars: read-out: IC50 Activity. A digest of the protocol:
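Full-length NS3 (1-631), 5 or 6 nM, preincubated 5 min with compound, then unwinds 50 nM FAM/BHQ-1 duplex substrate with 250 nM capture strand and 300 μM ATP in 25 mM MOPS pH 7.0, 1.5 mM MgCl2, 0.005% Triton X-100, 2% DMSO. Fluorescence (485/535 nm) followed ~30 min at room temperature; IC50 from initial rates by 4- or 5-parameter fit.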

Setting [1] is: Table 21, compounds made using Scheme 28.
Where [2] appears, read: HCV NS3 helicase, tables do not say whether Example A or Example B assay.
The mark [3] stands for this setting: Table 38, compounds made using Scheme 56, Scheme 57 and Scheme 61.
[4] abbreviates: Table 31, compounds made using Schemes 38-45.
The mark [5] stands for this setting: Table 35, compounds made using Scheme 53.
Where [6] appears, read: Table 34, compounds made using Schemes 51-52.
Setting [7] is: Table 36, compounds made using Scheme 54.
[8] abbreviates: Table 32, compounds made using Schemes 46-49.

Read-outs that look alike come from different tables or passages of the source.

T1 sequence (P26663 1027-1657): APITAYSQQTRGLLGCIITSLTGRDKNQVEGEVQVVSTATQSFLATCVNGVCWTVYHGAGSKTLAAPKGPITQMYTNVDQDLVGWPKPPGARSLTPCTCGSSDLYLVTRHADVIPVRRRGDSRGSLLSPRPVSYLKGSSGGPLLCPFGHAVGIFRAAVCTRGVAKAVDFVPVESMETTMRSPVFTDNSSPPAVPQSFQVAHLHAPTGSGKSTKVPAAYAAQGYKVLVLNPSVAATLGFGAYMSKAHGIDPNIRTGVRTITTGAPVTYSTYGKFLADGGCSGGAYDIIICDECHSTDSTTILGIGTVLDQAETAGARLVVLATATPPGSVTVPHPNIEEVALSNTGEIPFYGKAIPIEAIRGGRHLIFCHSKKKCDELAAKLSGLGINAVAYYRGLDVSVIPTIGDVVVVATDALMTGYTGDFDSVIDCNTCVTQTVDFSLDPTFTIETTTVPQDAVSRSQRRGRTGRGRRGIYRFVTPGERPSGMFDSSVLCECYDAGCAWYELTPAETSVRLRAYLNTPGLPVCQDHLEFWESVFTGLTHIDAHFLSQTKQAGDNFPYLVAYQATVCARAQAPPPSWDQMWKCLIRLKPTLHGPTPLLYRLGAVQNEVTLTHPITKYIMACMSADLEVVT

For the molecule `COc1ccc(N(C)c2ccc(Cn3cc(CC(=O)O)c4ccccc43)cc2)cc1OC` [Example 579], the concentration for half-maximal inhibition (IC50) under setting [1] fell in the range of 10 to 50 µM. `CCN(Cc1ccccc1)c1ccc(-n2cc(CC(=O)O)c3ccccc32)c(C)c1` [Example 174]: the IC50 under setting [2] is less than 10 µM. For the molecule `Cc1ccc(-c2ccc3c(CC(=O)O)cn(Cc4csc5ccc(Cl)cc45)c3c2)cc1` [Example 751], the IC50 (Table 37, compounds made using Scheme 55) was more than 50 µM.

For `CCOC(=O)Cc1cn(Cc2csc3c(N(C=O)CC)cc(Cl)cc23)c2cc(Br)ccc12` [Example 771], the IC50 under setting [3] is more than 50 µM.

As for `CC(C)(C)OC(=O)NCc1cccc(-c2ccc(C(=O)c3[nH]c4ccccc4c3CC(=O)O)cc2)c1` [Example 268], the IC50 under setting [2] is less than 10 µM. Still for that read-out and setting: the result for `COc1cccc(N(C)c2cccc(Cn3cc(CC(=O)O)c4ccccc43)c2)c1` [Example 527] reads less than 10 µM. With `Nc1ccnc(-c2ccc3c(CC(=O)O)cn(Cc4csc5ccc(Cl)cc45)c3c2)n1` [Example 630], the IC50 under setting [4] was less than 10 µM.

As for `Nc1cc(N)cc(-c2ccc3c(CC(=O)O)cn(Cc4csc5ccc(N)cc45)c3c2)c1` [Example 702], under setting [5], the IC50 lay within 10 to 50 µM. For `Nc1nc(Cl)cc(-c2ccc3c(CC(=O)O)cn(Cc4csc5ccc(Cl)cc45)c3c2)n1` [Example 636], the IC50 under setting [4] was less than 10 µM. Consider `O=C(O)Cc1cn(Cc2cccc(Oc3ccc(Cl)cc3Cl)c2)c2ccccc12` [Example 596], for which the IC50 (Table 23, compounds made using Scheme 30) is less than 10 µM. Turning to `CC(C)c1ccc(Cn2c(C(=O)NCc3ccc(Oc4ccccc4)cc3)c(CC(=O)O)c3cc(Br)ccc32)cc1` [Example 446], the IC50 under setting [2] was less than 10 µM. Same read-out and setting: the result for `COc1ccc(N(C)c2cccc(Cn3cc(CC(=O)O)c4ccccc43)c2)c(OC)c1` [Example 542] reads less than 10 µM. Still for that read-out and setting: the result for `O=C(Cn1cc(Cc2nnn[nH]2)c2ccccc21)N1CCN(Cc2ccccc2)CC1` [Example 205] reads 10 to 50 µM.

For `CN(Cc1ccccc1F)c1ccc(-n2cc(CC(=O)O)c3ccccc32)cc1` [Example 182], under setting [2], the IC50 was less than 10 µM.

As for `CCNc1cc(Cl)cc2c(Cn3cc(CC(=O)O)c4ccc(Br)cc43)csc12` [Example 772], the IC50 under setting [3] is more than 50 µM. Consider `NC(=O)c1ccc(N)cc1-c1ccc2c(CC(=O)O)cn(Cc3csc4ccc(Cl)cc34)c2c1` [Example 641], for which the IC50 under setting [4] fell in the range of 10 to 50 µM. For `CC(C)c1ccc(Cn2c(C(=O)NCc3ccc(F)cc3)c(CC(=O)O)c3ccccc32)cc1` [Example 452], the IC50 under setting [2] is less than 10 µM. The same measure, in the same setting: the result for `COc1ccccc1N(C)c1cccc(Cn2cc(CC(=O)O)c3ccccc32)c1` [Example 526] reads 10 to 50 µM; that for `O=C(O)Cc1c(Cc2ccc(-c3ccc(Cl)cc3Cl)cc2)[nH]c2ccccc12` [Example 289], less than 10 µM. In the case of `O=C(O)Cc1cn(Cc2csc3ccccc23)c2ccc(Br)cc12` [Example 678], the IC50 under setting [6] lay within 10 to 50 µM. With `CC(C)c1ccc(Cn2cc(CC(=O)O)c3cc(Br)ccc32)cc1` [Example 102], the IC50 under setting [2] lay within 10 to 50 µM. With `Nc1cc(N)cc(-c2ccc3c(CC(=O)O)cn(Cc4csc5cccc(Cl)c45)c3c2)c1` [Example 727], the half-inhibitory concentration (IC50) under setting [7] was less than 10 µM. As for `O=C(O)Cc1cn(Cc2cccc(-c3cccnc3)c2)c2ccc(OCc3ccccc3)cc12` [Example 130], the IC50 under setting [2] lay in the range of 10 to 50 µM. The same measure, in the same setting: under `CCOC(=O)Cc1cn(Cc2ccc(Oc3ccc(Cl)cc3)cc2)c2cc(-c3cccc(OC(C)=O)c3)ccc12` [Example 605] stands more than 50 µM. `CC(=O)OC1CCCN(c2ccc3ccn(Cc4csc5ccc(Cl)cc45)c3c2)C1` (stereo not drawn) [Example 695]: the IC50 under setting [6] is 10 to 50 µM. `O=C(O)Cc1cn(Cc2csc(-c3ccccc3)n2)c2ccc(OCc3ccccc3)cc12` [Example 125]: the IC50 under setting [2] lay within 10 to 50 µM. As for `O=C(O)Cc1c(C(=O)c2ccc(-c3cccc(Cl)c3)cc2)[nH]c2ccccc12` [Example 253], the IC50 under setting [2] is 10 to 50 µM.

For `O=C(O)Cc1cn(Cc2cccc(-c3ccccc3)c2)c2ccc(OCc3ccccc3)cc12` [Example 112], the IC50 under setting [2] was less than 10 µM. Still for that read-out and setting: under `O=C(O)Cc1cn(Cc2cccc(Br)c2)c2ccc(OCc3ccccc3)cc12` [Example 113] stands 10 to 50 µM. `CCOc1cccc(-c2cccc(C(=O)c3[nH]c4ccccc4c3CC(=O)O)c2)c1` [Example 226]: under setting [2], the IC50 lay in the range of 10 to 50 µM. As to `Nc1ccnc(-c2ccc3c(CC(=O)O)cn(Cc4csc5ccc(Cl)cc45)c3c2)n1` [Example 667], the IC50 (Table 33, compounds made using Scheme 50) was 10 to 50 µM. On to `O=C(O)Cc1cn(Cc2csc3ccc(F)cc23)c2ccccc12` [Example 133], for which the IC50 under setting [2] lay in the range of 10 to 50 µM. On the same count and under the same terms, under `O=C(O)Cc1cn(Cc2cccc(-c3cn[nH]c3)c2)c2ccc(OCc3ccccc3)cc12` [Example 131] stands less than 10 µM. As for `COC(=O)c1ccc(N)cc1-c1ccc2c(CC(=O)O)cn(Cc3csc4ccc(Cl)cc34)c2c1` [Example 642], the IC50 under setting [4] was less than 10 µM. With `CN(c1cccc(Cn2cc(CC(=O)O)c3ccccc32)c1)c1ccc(Cl)cc1Cl` [Example 573], the IC50 under setting [1] is less than 10 µM.

Turning to `COc1ccc(OC)c(Oc2ccc(Cn3cc(CC(=O)O)c4ccccc43)cc2)c1` [Example 510], under setting [2], the IC50 is less than 10 µM.

Regarding `Cc1cc([N+](=O)[O-])ccc1-n1cc(C(=O)C(=O)O)c2cc(Br)cnc21` [Example 332], the IC50 under setting [2] is 10 to 50 µM. Turning to `O=C(O)Cc1cn(Cc2ccc(Oc3cc(C(F)(F)F)cc(C(F)(F)F)c3)cc2)c2ccccc12` [Example 512], under setting [2], the IC50 was less than 10 µM. Take `Nn1cc(-c2ccc3c(CC(=O)O)cn(Cc4csc5ccc(Cl)cc45)c3c2)c(=O)[nH]c1=O` [Example 653]: the IC50 under setting [4] fell in the range of 10 to 50 µM.

With `CCOC(=O)Cc1cn(Cc2cccc3nc(C)ccc23)c2cc(-c3cc(N)cc(N)c3)ccc12` [Example 791], the IC50 under setting [5] was in the range of 10 to 50 µM. For the molecule `CC(C)c1ccc(Cn2c(C(=O)Nc3ccc(S(C)(=O)=O)cc3)c(CC(=O)O)c3ccccc32)cc1` [Example 461], the IC50 under setting [2] was less than 10 µM.

As to `O=C(O)Cc1cn(Cc2ccc(Oc3cc(F)cc(F)c3)cc2)c2ccccc12` [Example 506], the IC50 under setting [2] was less than 10 µM. With `NC(=O)c1sccc1-c1ccc2c(CC(=O)O)cn(Cc3csc4ccc(Cl)cc34)c2c1` [Example 661], the IC50 under setting [8] fell in the range of 10 to 50 µM.

On to `Nc1cc(N)cc(-c2ccc3c(CC(=O)NOCc4ccccc4)cn(Cc4csc5ccc(Cl)cc45)c3c2)c1` [Example 680], for which, under setting [6], the IC50 is less than 10 µM. Consider `CC(C)c1ccc(Cn2cc(CC(=O)O)c3ccc(-c4cc(N)cc(N)c4)cc32)cc1` [Example 619], for which the IC50 (Table 28, compounds made using Scheme 35) was less than 10 µM. Take `c1ccc(-c2ccccc2Cn2cc(Cc3nnn[nH]3)c3ccccc32)cc1` [Example 203]: under setting [2], the IC50 was less than 10 µM. As to `O=C(O)Cc1cn(Cc2cccc(Oc3ccccc3F)c2)c2ccccc12` [Example 472], the IC50 under setting [2] is less than 10 µM.

`O=C(O)Cc1cn(Cc2csc3ccc(Cl)cc23)c2cc(Oc3ccc([N+](=O)[O-])cc3)ccc12` [Example 357]: under setting [2], the IC50 is less than 10 µM.

On to `CC(c1nnn[nH]1)c1cn(Cc2csc3ccc(Cl)cc23)c2ccccc12` (stereo not drawn) [Example 215], for which, under setting [2], the IC50 lay in the range of 10 to 50 µM.

Take `Cc1sc2cc(Cl)c(F)cc2c1Cn1cc(CC(=O)O)c2ccc(-c3cc(N)cc(N)c3)cc21` [Example 788]: under setting [7], the IC50 is less than 10 µM.

As for `O=C(O)C(Cc1csc2ccc(Cl)cc12)c1cn(Cc2csc3ccc(Cl)cc23)c2cc(-c3ccco3)ccc12` (stereo not drawn) [Example 361], the IC50 under setting [2] was less than 10 µM. On to `NC(=O)c1cccc(-c2ccc(C(=O)c3[nH]c4ccccc4c3CC(=O)O)cc2)c1` [Example 263], for which the IC50 under setting [2] was in the range of 10 to 50 µM. Same read-out and setting: the result for `COc1cccc(Oc2cccc(Cn3cc(CC(=O)O)c4ccccc43)c2)c1` [Example 479] reads 10 to 50 µM. Same read-out and setting: the result for `O=C(O)Cc1cn(Cc2ccc(Oc3cccc(C(F)(F)F)c3)cc2)c2ccccc12` [Example 503] reads less than 10 µM; that for `O=C(O)Cc1c(C(=O)c2ccc(-c3ccccc3)cc2)n(Cc2ccccc2)c2ccccc12` [Example 219], less than 10 µM. For `O=C(O)Cc1c(C(=O)c2ccc(-c3ccccc3)cc2)sc2ccccc12` [Example 224], the IC50 under setting [2] is less than 10 µM. Regarding `Cc1ccc(-c2ccc(Cc3[nH]c4ccccc4c3CC(=O)O)cc2)cc1C` [Example 282], the IC50 under setting [2] was less than 10 µM. The same measure, in the same setting: under `CC(=O)NC(C(=O)O)c1cn(Cc2ccc(C(C)C)cc2)c2ccccc12` (stereo not drawn) [Example 420] stands 10 to 50 µM; under `O=C(O)Cc1c(C(=O)c2ccc(-c3ccc(Cl)cc3)cc2)[nH]c2ccccc12` [Example 252], 10 to 50 µM; under `O=C(O)Cc1c(Cc2csc3ccc(Cl)cc23)n(Cc2ccccc2)c2cc(OCc3ccccc3)ccc12` [Example 366], less than 10 µM. The same measure, in the same setting: under `O=C(O)Cc1cn(Cc2cccc(-c3cncnc3)c2)c2ccc(OCc3ccccc3)cc12` [Example 119] stands 10 to 50 µM.

For `Nc1nnc(-c2ccc3c(CC(=O)O)cn(Cc4csc5ccc(Cl)cc45)c3c2)s1` [Example 660], under setting [8], the IC50 was 10 to 50 µM.

Take `CN(c1cccc(F)c1)c1cccc(Cn2cc(CC(=O)O)c3ccccc32)c1` [Example 521]: the IC50 under setting [2] was less than 10 µM. For `COc1ccc(OC)c(N(C)c2ccc(Cn3cc(CC(=O)O)c4ccccc43)cc2)c1` [Example 578], under setting [1], the IC50 is less than 10 µM.

Regarding `O=C(O)Cc1cn(Cc2csc3ccc(Cl)cc23)c2cc(-c3ccccc3)ccc12` [Example 614], for the setting “Table 26, compounds made using Scheme 33”, the IC50 was less than 10 µM.

On to `COc1ccc(OC)c(N(C)c2cccc(Cn3cc(CC(=O)O)c4ccccc43)c2)c1` [Example 543], for which, under setting [2], the IC50 is less than 10 µM.
